A short description of this assay: Determination of GC-odor threshold values (gas chromatograph with sniff port, panel of trained evaluators). As to conditions: absolute amount of compound delivered at the sniff port, identical conditions. From the text:
As used herein, “odor threshold value” means the lowest concentration of a vapour in the air which can be detected by smell. Generally speaking, it can be said that a compound with a low odor threshold value is more powerful than a compound with a high odor threshold value and thus allows the use of very low concentration in a fragrance composition to achieve an olfactory effect.
EXAMPLE 24: DETERMINATION OF GC-ODOR THRESHOLD VALUES
According to standard procedures known to the person skilled in the art, threshold values for volatile perfumery compounds are determined on a gas chromatograph equipped with a sniff port by a panel of trained evaluators. The lowest concentration smelled by each panelist is recorded as the individual threshold value expressed in ng (absolute amount of compound delivered at the sniff port).
Under identical conditions the odor threshold value for the individual compounds was measured.
On to `CC1Cc2cccc(C3CC3)c2C1=O` (centres unmarked) [7-cyclopropyl-2-methyl-2,3-dihydro-1H-inden-1-one], for which the odor threshold value was determined as 4.31 ng. `C=C(C)Cc1cccc2c1C(=O)C(C)C2` (centres unmarked) [2-methyl-7-(2-methylallyl)-2,3-dihydro-1H-inden-1-one] displayed an odor threshold value of 4.96 ng. As for `CC(C)Cc1ccc2c(c1)C(=O)C(C)C2` (centres unmarked) [Example 1, 6-isobutyl-2-methyl-2,3-dihydro-1H-inden-1-one], the figure is 0.06 ng. `CCCc1ccc2c(c1)CC(C)C2=O` (centres unmarked) [2-methyl-5-propyl-2,3-dihydro-1H-inden-1-one] came in with an odor threshold value of 0.98 ng.

Turning to `CC(C)Cc1ccc2c(c1)CC(C)C2=O` (centres unmarked) [Comparison Example 1, 5-isobutyl-2-methyl-2,3-dihydro-1H-inden-1-one], the odor threshold value turned out to be 1.56 ng.

For `CC1Cc2c(cccc2C2CC2)C1=O` (centres unmarked) [Comparison Example 7, 4-cyclopropyl-2-methyl-2,3-dihydro-1H-inden-1-one], the odor threshold value is given as 31.7 ng. On to `C=C(C)Cc1ccc2c(c1)C(=O)C(C)C2` (centres unmarked) [Example 22, 2-methyl-6-(2-methylallyl)-2,3-dihydro-1H-inden-1-one], for which the odor threshold value was found to be 0.24 ng. `CCCc1ccc2c(c1)C(=O)C(C)C2` (centres unmarked) [Example 7, 2-methyl-6-propyl-2,3-dihydro-1H-inden-1-one] gave an odor threshold value of 0.04 ng. The figure for `CCCc1cccc2c1CC(C)C2=O` (centres unmarked) [Comparison Example 3, 2-methyl-4-propyl-2,3-dihydro-1H-inden-1-one] is 6.25 ng; for `C=C(C)Cc1cccc2c1CC(C)C2=O` (centres unmarked) [Comparison Example 5, 2-methyl-4-(2-methylallyl)-2,3-dihydro-1H-inden-1-one] it is 6.25 ng; for `CC1Cc2ccc(C3CC3)cc2C1=O` (centres unmarked) [Example 11, 6-cyclopropyl-2-methyl-2,3-dihydro-1H-inden-1-one] it is 0.46 ng.

Values taken from patent publication US11020333B2, “Organic compounds” (Givaudan SA, priority 2016, dated 2021).
